Earlier results in patent US20230174569A1, “PROCESS PER PREPARING (3a,5a)-20-OXOPREGNAN-3-YL GLYCYL-L-VALINATE HYDROCHLORIDE” ([…] S.R.L., priority 2021, published 2023).
Structures can show the parent of a compound that is named as a salt.

Experiments:
[1] = compared with Brexanolone
[2] = compared with Brexanolone; remark: listed apart in the source

For CC(=O)[C@H]1CC[C@H]2[C@@H]3CC[C@H]4C[C@H](OC(=O)[C@@H](NC(=O)CN)C(C)C)CC[C@]4(C)[C@H]3CC[C@]12C [compound I, (3α,5α)-20-oxopregnan-3-yl glycyl-L-valinate hydrochloride], the water solubility [1] is listed as “better profile than Brexanolone” and the “storage stability in aqueous solutions” value [2] is listed as “better profile than Brexanolone”.
